Patent EP1021178B1, “SELENOPHENE ANTI-TUMOR AGENTS” (Purdue Research Foundation, priority 1996, dated 1997)
Where two headings read alike, the source gives them in different places.

Key:
NCI-H226 = assay: NCI human tumor cell panel; conditions: for CC50: NCI-H226, read-out: Log10 LC50 (converted)
SK-OV-3 = assay: NCI human tumor cell panel; conditions: for CC50: SK-OV-3, read-out: Log10 LC50 (converted)
HT29 = assay: NCI human tumor cell panel; conditions: HT-29, read-out: Log10 LC50 (converted)
SK-MEL-5 = assay: NCI human tumor cell panel; conditions: SK-MEL-5, read-out: Log10 LC50 (converted)
COLO 205 = assay: NCI human tumor cell panel; conditions: COLO 205, read-out: Log10 LC50 (converted)
HS 578T = assay: NCI human tumor cell panel; type: cell-based; conditions: read-out: Log10 LC50 (converted)
MCF7/ADR-RES = assay: NCI human tumor cell panel; type: cell-based; conditions: MCF7, read-out: Log10 LC50 (converted)
CAKI-1 = assay: NCI human tumor cell panel; type: cell-based; conditions: CAKI-1, read-out: Log10 LC50 (converted)
MCF7 = assay: NCI human tumor cell panel; type: cell-based; conditions: MCF7, read-out: Log10 LC50 (converted)
K-562 = assay: NCI human tumor cell panel; type: cell-based; conditions: K562, read-out: Log10 LC50 (converted)
UACC-257 = assay: NCI human tumor cell panel; type: cell-based; conditions: UACC-257, read-out: Log10 LC50 (converted)
RPMI-8226 = assay: NCI human tumor cell panel; type: cell-based; conditions: RPMI-8226, read-out: Log10 LC50 (converted)
PC-3 = assay: NCI human tumor cell panel; type: cell-based; conditions: PC-3, read-out: Log10 LC50 (converted)
T-47D = assay: NCI human tumor cell panel; type: cell-based; conditions: T47D, read-out: Log10 LC50 (converted)
SN12C = assay: NCI human tumor cell panel; type: cell-based; conditions: read-out: Log10 LC50 (converted)
[1] = system: human tumor cell line panels; assay: NCI human tumor cell panel, whole-panel summary (mean graph) and lines without a row head; conditions: for Log10 TGI, Delta / Log10 TGI, Range / Log10 LC50, Delta: whole panel
HL-60(TB) = assay: NCI human tumor cell panel; conditions: HL-60, read-out: Log10 LC50 (converted)
SF-268 = assay: NCI human tumor cell panel; type: cell-based; conditions: SF-268, read-out: Log10 LC50 (converted)
RXF-393 = assay: NCI human tumor cell panel; type: cell-based; conditions: RXF 393, read-out: Log10 LC50 (converted)
[2] = Homo sapiens, read-out: Log10 TGI
[3] = Homo sapiens, read-out: Log10 GI50, Delta, Delta, whole panel (converted)

O=Cc1ccc(-c2ccc(-c3ccc(C=O)[se]3)s2)s1
CC50 (NCI-H226): > 100 µM
IC (TGI) (NCI-H226; NCI-H226, read-out: Log10 TGI): > 100 µM
CC50 (SK-OV-3): > 100 µM
CC50 (HT29): > 100 µM
CC50 (SK-MEL-5): > 100 µM
CC50 (COLO 205): 91.2 µM
CC50 (HS 578T): > 100 µM
CC50 (MCF7/ADR-RES): > 100 µM
LC50 (CAKI-1): 29.5 µM
CC50 (MCF7): > 100 µM
LC50 (K-562): > 100 µM
CC50 (UACC-257): > 100 µM
CC50 (RPMI-8226): > 100 µM
CC50 (PC-3): > 100 µM
CC50 (T-47D): > 100 µM
CC50 (SN12C): > 100 µM
IC (TGI) [1, 2]: 44.7 µM

OCc1ccc(-c2ccc(-c3ccc(CO)[se]3)s2)s1
CC50 (SK-OV-3): 51.3 µM
CC50 (HT29): > 100 µM
CC50 (SK-MEL-5): > 100 µM
CC50 (COLO 205): 61.7 µM
CC50 (HS 578T): > 100 µM
CC50 (MCF7/ADR-RES): > 100 µM
CC50 (MCF7): > 100 µM
LC50 (K-562): 97.7 µM
CC50 (UACC-257): 0.24 µM
CC50 (RPMI-8226): > 100 µM
CC50 (PC-3): > 100 µM
CC50 (SN12C): > 100 µM

OCc1ccc(-c2ccc(-c3ccc[se]3)[se]2)[se]1
CC50 (HT29): 58.9 µM
CC50 (SK-MEL-5): 29.5 µM
CC50 (COLO 205): > 100 µM
CC50 (HL-60(TB)): > 100 µM
CC50 (MCF7/ADR-RES): > 100 µM
LC50 (CAKI-1): 51.3 µM
LC50 (concentration killing 50% of cells) (SF-268): > 100 µM
CC50 (MCF7): 29.5 µM
LC50 (K-562): > 100 µM
CC50 (RPMI-8226): > 100 µM
CC50 (PC-3): 36.3 µM
CC50 (T-47D): 44.7 µM

OCc1ccc(-c2ccc(-c3ccc(CO)[se]3)[se]2)[se]1
CC50 (NCI-H226): 9.12 µM
CC50 (HT29): 66.1 µM
CC50 (SK-MEL-5): 6.31 µM
CC50 (COLO 205): 17.8 µM
CC50 (HS 578T): 46.8 µM
CC50 (MCF7/ADR-RES): > 100 µM
CC50 (RXF-393): 8.71 µM
LC50 (CAKI-1): 13.2 µM
LC50 (concentration killing 50% of cells) (SF-268): 20.9 µM
CC50 (MCF7): 47.9 µM
LC50 (K-562): 70.8 µM
CC50 (UACC-257): 31.6 µM
CC50 (RPMI-8226): > 100 µM
CC50 (PC-3): 35.5 µM
CC50 (SN12C): > 100 µM
IC (TGI) [1, 2]: 10.5 µM

OCc1ccc(-c2ccc(-c3ccc(CO)s3)[se]2)s1
CC50 (NCI-H226): > 100 µM
CC50 (SK-OV-3): > 100 µM
IC (TGI) (SK-OV-3; SK-OV-3, read-out: Log10 TGI): > 100 µM
CC50 (HT29): > 100 µM
CC50 (SK-MEL-5): > 100 µM
CC50 (COLO 205): 22.9 µM
CC50 (HL-60(TB)): > 100 µM
CC50 (HS 578T): > 100 µM
CC50 (MCF7/ADR-RES): > 100 µM
CC50 (RXF-393): > 100 µM
LC50 (CAKI-1): > 100 µM
LC50 (concentration killing 50% of cells) (SF-268): > 100 µM
CC50 (MCF7): > 100 µM
LC50 (K-562): > 100 µM
CC50 (RPMI-8226): > 100 µM
CC50 (PC-3): > 100 µM
CC50 (T-47D): > 100 µM
CC50 (SN12C): > 100 µM

OCc1ccc(-c2ccc(-c3ccc(CO)[se]3)s2)[se]1
CC50 (NCI-H226): > 100 µM
CC50 (HT29): > 100 µM
CC50 (SK-MEL-5): > 100 µM
CC50 (HL-60(TB)): > 100 µM
CC50 (HS 578T): > 100 µM
CC50 (MCF7/ADR-RES): > 100 µM
CC50 (RXF-393): > 100 µM
LC50 (CAKI-1): > 100 µM
LC50 (concentration killing 50% of cells) (SF-268): > 100 µM
CC50 (MCF7): > 100 µM
LC50 (K-562): > 100 µM
CC50 (RPMI-8226): > 100 µM
CC50 (PC-3): > 100 µM
CC50 (SN12C): > 100 µM

OCc1ccc(-c2ccc(-c3cccs3)[se]2)s1
CC50 (NCI-H226): 0.224 µM
CC50 (SK-OV-3): > 100 µM
CC50 (HT29): > 100 µM
CC50 (SK-MEL-5): > 100 µM
CC50 (HL-60(TB)): > 100 µM
CC50 (HS 578T): > 100 µM
CC50 (MCF7/ADR-RES): > 100 µM
CC50 (RXF-393): > 100 µM
LC50 (concentration killing 50% of cells) (SF-268): > 100 µM
CC50 (MCF7): > 100 µM
LC50 (K-562): > 100 µM
CC50 (UACC-257): 0.0525 µM
CC50 (RPMI-8226): > 100 µM
CC50 (PC-3): > 100 µM
CC50 (T-47D): > 100 µM
CC50 (SN12C): > 100 µM
Log10 TGI, Delta [1]: 3.46
GI50 ([1]; Homo sapiens, read-out: Log10 GI50, MG_MID (converted)): 5.25 µM
CC50 ([1]; Homo sapiens, read-out: Log10 LC50, MG_MID (converted)): 61.7 µM
IC (TGI) ([1]; Homo sapiens, read-out: Log10 TGI, MG_MID): 28.8 µM
Log10 TGI, Range [1]: 4.00

O=Cc1ccc(-c2ccc(-c3ccc(C=O)[se]3)[se]2)[se]1
CC50 (NCI-H226): > 100 µM
CC50 (HT29): > 100 µM
CC50 (SK-MEL-5): > 100 µM
CC50 (COLO 205): > 100 µM
CC50 (HL-60(TB)): > 100 µM
CC50 (HS 578T): > 100 µM
CC50 (MCF7/ADR-RES): > 100 µM
CC50 (RXF-393): > 100 µM
LC50 (CAKI-1): > 100 µM
LC50 (concentration killing 50% of cells) (SF-268): > 100 µM
CC50 (MCF7): > 100 µM
LC50 (K-562): > 100 µM
CC50 (UACC-257): > 100 µM
CC50 (RPMI-8226): > 100 µM
CC50 (PC-3): > 100 µM
CC50 (T-47D): > 100 µM
CC50 (SN12C): > 100 µM
Log10 LC50, Delta [1]: -4.02
Log10 TGI, Delta [1]: -4.18
GI50 [1, 3]: 21.4 µM
Log10 TGI, Range [1]: 1.91

O=Cc1ccc(-c2ccc(-c3ccc[se]3)[se]2)[se]1
CC50 (NCI-H226): 38.9 µM
CC50 (HT29): 36.3 µM
CC50 (SK-MEL-5): 37.2 µM
CC50 (COLO 205): 34.7 µM
CC50 (HL-60(TB)): > 100 µM
CC50 (HS 578T): 53.7 µM
CC50 (RXF-393): > 100 µM
LC50 (CAKI-1): 14.5 µM
LC50 (concentration killing 50% of cells) (SF-268): > 100 µM
CC50 (MCF7): 43.7 µM
LC50 (K-562): > 100 µM
CC50 (UACC-257): 33.1 µM
CC50 (RPMI-8226): > 100 µM
CC50 (PC-3): 87.1 µM
CC50 (T-47D): 47.9 µM
CC50 (SN12C): 50.1 µM
Log10 LC50, Delta [1]: -4.25
Log10 TGI, Delta [1]: -4.78
GI50 [1, 3]: 3.72 µM
Log10 TGI, Range [1]: 1.37

O=Cc1ccc(-c2ccc(-c3cccs3)[se]2)s1
CC50 (NCI-H226): 1.05 µM
CC50 (SK-OV-3): > 100 µM
CC50 (HT29): > 100 µM
CC50 (SK-MEL-5): > 100 µM
CC50 (COLO 205): > 100 µM
CC50 (HL-60(TB)): > 100 µM
CC50 (HS 578T): > 100 µM
CC50 (MCF7/ADR-RES): > 100 µM
CC50 (RXF-393): > 100 µM
LC50 (concentration killing 50% of cells) (SF-268): > 100 µM
CC50 (MCF7): > 100 µM
LC50 (K-562): > 100 µM
CC50 (UACC-257): 0.309 µM
CC50 (RPMI-8226): > 100 µM
CC50 (PC-3): > 100 µM
CC50 (T-47D): 91.2 µM
CC50 (SN12C): > 100 µM
Log10 LC50, Delta [1]: -4.13
Log10 TGI, Delta [1]: -4.42
GI50 [1, 3]: 6.76 µM
Log10 TGI, Range [1]: 3.13
